The values that follow come from patent US12246008B2, “4-amino or 4-alkoxy-substituted aryl sulfonamide compounds with selective activity in voltage-gated sodium channels” (Merck Sharp & Dohme LLC, priority 2018, dated 2025).

What all share (test): Qube automated patch-clamp assay, inhibition of sodium current
Assay type in all cases: cell-based
A general note: The patch-clamp technique gives a direct electrical read-out from membranes.

For assay [1], the target named is NaV1.5 (Homo sapiens, UniProt Q14524). As to conditions: holding potential −80 mV; max concentration tested 33750 nM. How it is done: (§1) Compounds were tested on human Nav1.7 and Nav1.6 channels stably expressed in HEK 293 cells. […] Cells were sealed on a planar substrate using the multihole technology. Cells expressing human Nav1.7 channels were held at −75 mV or −80 mV. Cells expressing human Nav1.6 channels were held at −65 mV. A train of 6 consecutive test pulses to −10 mV, preceded by 8 s prepulses to −115 mV, was applied at a frequency of 0.1 Hz before and after compound addition. Cells in each Qchip well were incubated in compound for 5 minutes before measuring inhibition. Peak currents were measured in control conditions and after compound addition. The following recording solutions were used (mM). External Nav1.6: 150 NaCl, 2 CaCl2), 5 KCl, 1 Mg Cl2, 10 HEPES, 12 Dextrose; external Nav1.7: 40 NaCl, 120 NMDG, 1 KCl, 0.5 MgCl2, 5 HEPES, 2.7 CaCl2); internal: 120 CsF, 30 CsCl, 10 EGTA, 5 HEPES, 5 NaF, 2 MgCl2. Compounds were prepared as 10 mM stock solutions in DMSO. 10 point compound titrations were generated using the Echo acoustic liquid handling instrument and glass coated 384 well plates. The final DMSO concentration in the assay was 0.3%. For all electrophysiology experiments, offline analysis was used to determine percent inhibition as a function of drug concentration. IC50 values were determined by fitting to the Hill equation.
Sequence of NaV1.5 (Q14524 whole entry): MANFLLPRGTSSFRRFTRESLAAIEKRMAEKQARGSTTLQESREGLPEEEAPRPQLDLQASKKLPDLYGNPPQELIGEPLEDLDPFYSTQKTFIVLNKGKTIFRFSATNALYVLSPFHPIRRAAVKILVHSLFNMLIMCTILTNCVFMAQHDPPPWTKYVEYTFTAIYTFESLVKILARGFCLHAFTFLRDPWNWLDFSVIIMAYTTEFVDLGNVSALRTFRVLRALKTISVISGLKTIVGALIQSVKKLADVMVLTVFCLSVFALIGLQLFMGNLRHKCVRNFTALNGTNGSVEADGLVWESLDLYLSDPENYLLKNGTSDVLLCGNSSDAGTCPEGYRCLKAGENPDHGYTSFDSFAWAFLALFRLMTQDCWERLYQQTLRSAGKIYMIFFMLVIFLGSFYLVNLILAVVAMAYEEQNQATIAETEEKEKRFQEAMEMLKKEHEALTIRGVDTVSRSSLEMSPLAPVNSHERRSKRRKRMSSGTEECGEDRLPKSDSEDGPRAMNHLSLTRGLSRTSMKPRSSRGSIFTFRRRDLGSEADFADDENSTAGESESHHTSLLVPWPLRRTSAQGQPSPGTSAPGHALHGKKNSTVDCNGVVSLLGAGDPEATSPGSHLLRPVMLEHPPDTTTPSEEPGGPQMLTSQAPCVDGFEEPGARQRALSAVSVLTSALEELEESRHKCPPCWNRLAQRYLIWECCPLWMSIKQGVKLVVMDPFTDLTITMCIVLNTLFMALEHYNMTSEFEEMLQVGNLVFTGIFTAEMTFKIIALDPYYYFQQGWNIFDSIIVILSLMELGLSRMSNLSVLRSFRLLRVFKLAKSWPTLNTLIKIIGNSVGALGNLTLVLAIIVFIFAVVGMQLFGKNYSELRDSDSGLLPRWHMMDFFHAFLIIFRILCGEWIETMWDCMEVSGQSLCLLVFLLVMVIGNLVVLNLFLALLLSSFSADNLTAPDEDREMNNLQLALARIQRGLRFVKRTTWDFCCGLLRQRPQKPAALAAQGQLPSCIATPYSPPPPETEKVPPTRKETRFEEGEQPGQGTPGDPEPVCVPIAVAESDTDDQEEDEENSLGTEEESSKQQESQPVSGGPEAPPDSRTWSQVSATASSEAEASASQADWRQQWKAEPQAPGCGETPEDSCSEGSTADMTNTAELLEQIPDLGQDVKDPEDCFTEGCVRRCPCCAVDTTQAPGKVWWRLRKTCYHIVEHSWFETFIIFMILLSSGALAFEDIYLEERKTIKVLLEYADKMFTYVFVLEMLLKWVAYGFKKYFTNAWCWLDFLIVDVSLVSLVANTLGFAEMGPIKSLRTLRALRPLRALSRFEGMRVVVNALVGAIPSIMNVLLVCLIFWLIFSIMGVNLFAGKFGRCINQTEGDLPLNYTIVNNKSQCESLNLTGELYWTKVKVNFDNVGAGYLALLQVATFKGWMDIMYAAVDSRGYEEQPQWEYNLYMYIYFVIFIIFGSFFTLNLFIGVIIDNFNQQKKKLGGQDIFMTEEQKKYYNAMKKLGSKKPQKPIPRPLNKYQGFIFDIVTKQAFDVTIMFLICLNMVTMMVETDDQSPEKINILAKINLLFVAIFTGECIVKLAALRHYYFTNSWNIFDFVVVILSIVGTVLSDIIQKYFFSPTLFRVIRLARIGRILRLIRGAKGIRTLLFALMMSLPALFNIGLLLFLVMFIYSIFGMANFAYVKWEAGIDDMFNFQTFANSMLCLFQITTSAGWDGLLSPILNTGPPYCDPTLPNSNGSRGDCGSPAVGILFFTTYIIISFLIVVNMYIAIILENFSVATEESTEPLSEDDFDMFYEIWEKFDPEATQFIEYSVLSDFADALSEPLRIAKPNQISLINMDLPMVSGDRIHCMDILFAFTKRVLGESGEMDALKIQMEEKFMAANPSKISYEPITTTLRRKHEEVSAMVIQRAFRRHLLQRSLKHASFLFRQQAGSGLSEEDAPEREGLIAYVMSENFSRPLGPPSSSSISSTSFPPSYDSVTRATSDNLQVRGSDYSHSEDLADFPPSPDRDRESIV
(§2) The various compounds in EXAMPLES 1 through 43 and TABLE 2 exemplified above were assayed for activity and selectivity using the foregoing Qube® technique. The results are reported in TABLE 3 in a format expressing the identification of the compound with reference EXAMPLE followed by the observed potency in nM for NaV1.7, NaV1.6 and NaV1.5. NA signifies not applicable and the max concentration tested is 33750 nM.

Assay [2] addresses T1, human Nav1.6 channels stably expressed in HEK 293 cells (Homo sapiens, UniProt Q9UQD0).
T1 construct: expressed in transfected cells; host or cells: HEK 293
As to conditions: holding potential −65 mV; max concentration tested 33750 nM. How it is done: (§3) Qube™ Experimental Procedure:
as §1, §2

In assay [3] the target is T2, human Nav1.7 channels stably expressed in HEK 293 cells (Homo sapiens, UniProt Q15858).
T2 construct: expressed in transfected cells; host or cells: HEK 293
The conditions noted are these: max concentration tested 33750 nM, read-out: NaV1.7 (nM). How it is done:
as §3, §1, §2

Where [4] appears, read: holding potential −75 mV, −75 mV.
Setting [5] is: holding potential −80 mV, −80 mV.

Where two headings read alike, the source gives them in different places.

T1 sequence (Q9UQD0 whole entry): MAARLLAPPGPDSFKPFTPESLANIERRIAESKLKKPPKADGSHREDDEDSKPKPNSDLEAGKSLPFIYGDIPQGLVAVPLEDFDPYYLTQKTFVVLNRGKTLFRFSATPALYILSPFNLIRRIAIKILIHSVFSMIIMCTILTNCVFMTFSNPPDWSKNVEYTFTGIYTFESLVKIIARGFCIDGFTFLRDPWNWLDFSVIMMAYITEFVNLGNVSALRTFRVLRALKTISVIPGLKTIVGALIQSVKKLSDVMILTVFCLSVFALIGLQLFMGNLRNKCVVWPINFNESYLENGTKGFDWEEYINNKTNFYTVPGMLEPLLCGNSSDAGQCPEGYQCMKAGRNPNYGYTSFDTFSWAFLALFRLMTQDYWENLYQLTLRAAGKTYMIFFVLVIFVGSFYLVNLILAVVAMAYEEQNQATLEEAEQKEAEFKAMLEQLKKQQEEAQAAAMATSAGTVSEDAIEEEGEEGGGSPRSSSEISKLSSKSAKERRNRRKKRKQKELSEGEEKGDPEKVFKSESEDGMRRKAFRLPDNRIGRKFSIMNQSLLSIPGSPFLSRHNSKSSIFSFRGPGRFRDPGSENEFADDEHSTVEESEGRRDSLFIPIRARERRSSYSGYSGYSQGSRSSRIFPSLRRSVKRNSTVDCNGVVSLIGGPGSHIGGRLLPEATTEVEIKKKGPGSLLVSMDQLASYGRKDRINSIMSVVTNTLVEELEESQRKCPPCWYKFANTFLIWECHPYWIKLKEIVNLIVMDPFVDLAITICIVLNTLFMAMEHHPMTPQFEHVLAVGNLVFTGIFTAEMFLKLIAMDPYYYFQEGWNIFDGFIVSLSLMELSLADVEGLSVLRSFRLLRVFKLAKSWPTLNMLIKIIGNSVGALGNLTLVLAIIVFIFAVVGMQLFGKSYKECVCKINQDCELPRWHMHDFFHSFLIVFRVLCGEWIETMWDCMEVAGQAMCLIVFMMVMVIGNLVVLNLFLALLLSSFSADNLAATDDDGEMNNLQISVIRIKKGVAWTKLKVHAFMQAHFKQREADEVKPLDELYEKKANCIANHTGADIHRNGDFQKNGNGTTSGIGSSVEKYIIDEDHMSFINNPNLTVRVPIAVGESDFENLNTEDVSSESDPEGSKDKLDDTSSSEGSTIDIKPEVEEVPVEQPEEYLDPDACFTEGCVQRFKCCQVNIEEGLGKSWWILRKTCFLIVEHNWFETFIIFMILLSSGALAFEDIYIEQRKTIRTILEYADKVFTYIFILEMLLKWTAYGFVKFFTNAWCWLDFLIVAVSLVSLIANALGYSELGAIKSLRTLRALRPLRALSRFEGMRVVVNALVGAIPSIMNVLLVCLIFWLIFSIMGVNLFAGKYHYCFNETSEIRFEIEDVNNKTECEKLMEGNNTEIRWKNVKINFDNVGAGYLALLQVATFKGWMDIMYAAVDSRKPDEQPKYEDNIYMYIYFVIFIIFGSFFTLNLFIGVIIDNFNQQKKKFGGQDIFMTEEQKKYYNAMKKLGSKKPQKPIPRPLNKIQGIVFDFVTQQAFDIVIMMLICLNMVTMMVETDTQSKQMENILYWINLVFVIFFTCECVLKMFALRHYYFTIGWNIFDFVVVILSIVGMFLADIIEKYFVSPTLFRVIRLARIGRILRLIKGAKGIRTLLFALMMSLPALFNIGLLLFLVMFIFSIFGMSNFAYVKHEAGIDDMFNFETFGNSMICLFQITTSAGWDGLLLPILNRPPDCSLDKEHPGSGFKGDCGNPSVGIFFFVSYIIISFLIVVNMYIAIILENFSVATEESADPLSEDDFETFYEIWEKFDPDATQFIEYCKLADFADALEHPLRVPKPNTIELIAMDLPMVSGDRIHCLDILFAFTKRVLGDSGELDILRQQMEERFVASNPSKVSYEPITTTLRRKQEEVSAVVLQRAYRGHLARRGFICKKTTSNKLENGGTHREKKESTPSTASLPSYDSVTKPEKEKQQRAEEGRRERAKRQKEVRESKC

`CC(C)(CCN)C[C@@H](CNc1cc(F)c(S(=O)(=O)Nc2ncns2)cc1Cl)[C@H](N)CC1CC1` [Example 29, 4-(((S)-6-amino-2-((R)-1-amino-2-cyclopropylethyl)-4,4-dimethylhexyl)amino)-5-chloro-2-fluoro-N-(1,2,4-thiadiazol-5-yl)benzenesulfonamide bis(2,2,2-trifluoroacetate)]: the IC50 in assay [1] is greater than 33800 nM; in assay [2], greater than 33800 nM; in assay [3] (setting [4]) it was 95 nM.

Regarding `C[C@@H](N)[C@H](CNc1ncc(S(=O)(=O)Nc2ncns2)cc1Br)CC(C)(C)CCN` [Example 30, 6-(((S)-6-amino-2-((R)-1-aminoethyl)-4,4-dimethylhexyl)amino)-5-bromo-N-(1,2,4-thiadiazol-5-yl)pyridine-3-sulfonamide], the IC50 in assay [1] was greater than 33800 nM; in assay [2], greater than 33800 nM; in assay [3] (setting [4]), 77 nM.

As for `Cc1cc(NC[C@H](CC(C)(C)CCN)[C@@H](C)N)c(Cl)cc1S(=O)(=O)Nc1ncns1` [Example 32, 4-(((S)-6-amino-2-((R)-1-aminoethyl)-4,4-dimethylhexyl)amino)-5-chloro-2-methyl-N-(1,2,4-thiadiazol-5-yl)benzenesulfonamide], the IC50 in assay [1] is 20700 nM; in assay [2], greater than 33800 nM; in assay [3] (setting [4]), 19 nM.

For `C[C@@H](N)[C@H](CNc1cc(F)c(S(=O)(=O)Nc2ncns2)cc1-c1nccs1)CC(C)(C)CCN` [Example 40, 4-(((S)-6-amino-2-((R)-1-aminoethyl)-4,4-dimethylhexyl)amino)-2-fluoro-N-(1,2,4-thiadiazol-5-yl)-5-(thiazol-2-yl)benzenesulfonamide], the figures for the IC50 in assay [1], in assay [2] and in assay [3] (setting [5]) were greater than 33800 nM, 11600 nM and 17 nM, respectively.

In the case of `C[C@@H](N)[C@H](CNc1cc(F)c(S(=O)(=O)Nc2ncns2)cc1F)CC1(CCN(C)C)CCC1` [Example 43, 4-(((2S,3R)-3-amino-2-((1-(2-(dimethylamino)ethyl)cyclobutyl)methyl)butyl)amino)-2,5-difluoro-N-(1,2,4-thiadiazol-5-yl)benzenesulfonamide], the IC50 was greater than 33800 nM in assay [1], greater than 33800 nM in assay [2] and 61 nM in assay [3] (setting [5]).

As to `Cc1cc(NC[C@H](CC(C)(C)CCN)[C@@H](C)N)c(C#N)cc1S(=O)(=O)Nc1ncns1` [Example 68], the figures for the IC50 in assay [1], in assay [2] and in assay [3] (setting [4]) were greater than 33800 nM, 10100 nM and 37 nM, respectively.

As for `COc1cc(S(=O)(=O)Nc2ncns2)c(F)cc1NCC(CC1(CN)CCC1)[C@@H](C)N` (stereo partly drawn) [Example 73], the IC50 in assay [1] was greater than 33800 nM; in assay [2], greater than 33800 nM; in assay [3] (setting [4]) it was 23 nM.

`C[C@@H](N)[C@H](CNc1cc(F)c(S(=O)(=O)Nc2ncns2)cc1CO)CC(N)C1CC1` (stereo partly drawn) [Example 80]: the IC50 in assay [1] is greater than 33800 nM; in assay [2] it was greater than 33800 nM; in assay [3] (setting [4]), 71 nM.

On to `CCC(N)C[C@@H](CNc1cc(F)c(S(=O)(=O)Nc2ncns2)cc1OC)[C@@H](C)N` (stereo partly drawn) [Example 83], for which the IC50 in assay [1] was greater than 33800 nM; in assay [2], greater than 33800 nM; in assay [3] (setting [4]) it was 48 nM.

With `C[C@@H](N)[C@H](CNc1ccc(S(=O)(=O)Nc2ncns2)c(F)c1F)CC1(CCN)CCC1` [Example 100], the IC50 in assay [1] is greater than 33800 nM; in assay [2] it was greater than 33800 nM; in assay [3] (setting [5]), 52 nM.

As to `C[C@@H](N)C(CNc1cc(F)c(S(=O)(=O)Nc2ncns2)cc1Cl)CN1CCCC1` (stereo partly drawn) [Example 110], the IC50 is greater than 33800 nM in assay [1], greater than 33800 nM in assay [2] and 110 nM in assay [3] (setting [4]).
